Experimental data: patent US11744899B2, “Pharmaceutical composition containing a hyaluronic acid derivative” (SEIKAGAKU CORPORATION, priority 2018, dated 2023)
Values belong to the molecule of their own block, whether it stands above or below them.

What was measured:
[1] = Storage test (1-1) using 50 mM phosphate buffer solution (pH 6.5); type: physicochemical; conditions: additional component 5 wt %; 1.0 wt % hyaluronic acid derivative, 50 mM phosphate buffer pH 6.5, 1 week at 60° C., HPLC; control solution = 1
Method: (§1) 1.5 g of the hyaluronic acid derivative of the above Synthesis Example and 98.5 g of each of the various buffer solutions prepared above were mixed and stirred for 2 hours in a water bath at 70° C., whereby a 1.5 wt % hyaluronic acid derivative solution was prepared.
(§2) Additional component aqueous solutions to be added to the hyaluronic acid derivative solution were prepared using various additional components and WFI so that the concentration of each component is three times as high as the final concentration (wt %).
(§3) 2.0 g of the 1.5 wt % hyaluronic acid derivative solution prepared above and 1.0 g of the additional component aqueous solution were mixed, whereby a test sample (final concentration of hyaluronic acid derivative: 1.0 wt %) was prepared.
(§4) The test samples prepared above containing each of the various buffer solutions (50 mM phosphate buffer solution, 10 mM citrate buffer solution, 10 mM acetate buffer solution, or 30 mM acetate buffer solution) were subjected to a storage test.
(§5) Each of the test samples was stored for 1 week in a thermostat chamber at 60° C., and thereafter, the accumulation amount of each of diclofenac and diclofenac lactam was measured by HPLC.
(§6) The amount of diclofenac and the amount of diclofenac lactam were calculated as relative values when each of the amount of diclofenac and the amount of diclofenac lactam present in the control solution (1 wt % hyaluronic acid derivative solution) after being stored for 1 week at 60° C. was assumed to be 1.
(§7) Each of the prepared various test samples was filled in a screw vial (AS ONE Corporation, Cat No. 3-1599-01) and left to stand at 60° C. for 1 week. The amount of diclofenac and the amount of diclofenac lactam present in the solution after being left to stand were quantitatively analyzed by HPLC.
(§8) The HPLC conditions are as follows.
(§9) The elution time of each of diclofenac and diclofenac lactam was determined by performing measurement in advance using a standard substance.

[2] = Storage test (1-2) using 10 mM citrate buffer solution (pH 5.1); type: physicochemical; conditions: after storage, 1.0 wt % hyaluronic acid derivative, 10 mM citrate buffer pH 5.1, 1 week at 60° C.
Method: A citric acid aqueous solution having a citric acid concentration of 15 mM and a trisodium citrate aqueous solution having a citrate concentration of 15 mM were mixed at a ratio (volume ratio) of 27:37, whereby a citrate buffer solution was prepared. The pH of the citrate buffer solution after preparation was 5.1.
as §1, §2, §3, §4, §5, §6, §7, §8, §9
As the additional component, creatinine (1 wt %), sodium deoxycholate (5 wt %), 1,2,3-butanetriol (5 wt %), PEG 400 (6.3 wt % or 16.5 wt %), PEG 600 (10 wt %), PEG 4000 (10 wt %), PEG 6000 (10 wt %), SDS (5 wt %), Triton X-100 (5 wt %), ethanol (26 wt %), octyl glucoside (5 wt %), glucuronolactone (0.1 wt %), chlorogenic acid (0.1 wt %), propylene glycol (10 wt %), polysorbate 20 (5 wt %), or polyvinylpyrrolidone (5 wt %) was used.
Similarly, as the additional component, additional components of a two-component system of PEG 3350 (10.6 wt %) and polysorbate 80 (3 wt %), or PEG 3350 (6.0 wt %) and hydroxypropyl-β-cyclodextrin (10 wt %), or additional components of a three-component system of PEG 3350 (5.5 wt %), polysorbate 80 (1 wt %) and hydroxypropyl-β-cyclodextrin (10 wt %) were used.

[3] = Storage test (1-3) using 30 mM acetate buffer solution (pH 5.1); type: physicochemical; conditions: 1.0 wt % hyaluronic acid derivative, 30 mM acetate buffer pH 5.1, 1 week at 60° C., HPLC, control solution = 1
Method: (§10) An acetic acid aqueous solution having an acetic acid concentration of 15 mM and a sodium acetate aqueous solution having an acetate concentration of 15 mM were mixed at a ratio (volume ratio) of 1:3, whereby an acetate buffer solution was prepared. The pH of the acetate buffer solution after preparation was 5.1. In addition, an acetate buffer solution having an acetic acid concentration of 45 mM and a pH of 5.1 was prepared in a similar manner.
as §1, §2, §3, §4, §5, §6, §7, §8, §9
As the additional component, propyl gallate (1.5 wt %), any one of lactic acid anhydrous (1.5 wt %), hydroxypropyl cellulose (1.5 wt %), starch (1.5 wt %), dextran (5 wt %), sucrose (5 wt %), sodium saccharinate dihydrate (5 wt %), glycine (5 wt %), sodium aspartate (1.5 wt %), L-leucine (1.5 wt %), L-phenylalanine (5 wt %), L-serine (5 wt %), D-mannitol (1.5 wt %), D-sorbitol (5 wt %), hydroxypropyl-β-cyclodextrin (3 wt %, 5 wt %, 10 wt %, or 15 wt %), and ethanol (5 wt %, 10 wt %, 20 wt %, or 26.3 wt %) was used.

[4] = Evaluation of filterability of aqueous composition (Vmax); type: physicochemical; conditions: 1.0 wt % hyaluronic acid derivative, acetate buffer pH 5.1, 0.22 μm PVDF membrane, 0.6 MPa, 70° C.
Method: The calculation of the maximum treatment amount (Vmax) is more specifically performed as follows. That is, the aqueous composition at a liquid temperature of 70° C. is filtered under a pressure of 0.6 MPa using a polyvinylidene fluoride filtration membrane with a pore size of 0.22 μm. At that time, the total filtration amount per effective filtration area (V) of the filtration membrane is measured every 30 seconds until the flow rate (Q) becomes 1/10 or less of the flow rate at the start of filtration. By plotting the measurement results with the filtration time (t) along the horizontal axis and t/V along the vertical axis, the following formula A is calculated within a range of the measurement point where the transition of t/V is stable. The maximum treatment amount (Vmax) is determined from the reciprocal of the slope a of the calculation formula A (that is, the following calculation formula B). Note that the flow rate (Q) is the filtration amount per unit time (that is, Q=dV/dt).
The hyaluronic acid derivative prepared above and the 15 mM acetate buffer solution (pH 5.1) prepared above were mixed and stirred, and then, defoamed by being left to stand, whereby a 1.5 wt % hyaluronic acid derivative solution was prepared.
150.0 g of the 1.5 wt % hyaluronic acid derivative solution prepared above and 75.0 g of an additional component aqueous solution were mixed, whereby a test sample (final concentration of hyaluronic acid derivative: 1.0 wt %) was prepared.
In addition, a control solution in which 75.0 g of WFI was mixed in place of the additional component aqueous solution was also prepared.
To a stainless steel pressure filter holder in which a polyvinylidene fluoride (PVDF) membrane (47 mm in diameter, effective filtration area: 13.8 cm^2, manufactured by Merck & Co.) with a pore size of 0.22 μm was set, 200 mL of the test sample prepared above was added and pressure was applied at 0.6 MPa at 70° C. The amount of liquid passing through the filter was weighed every 30 seconds, and the maximum treatment amount (Vmax) was calculated from the relationship between the elapsed time and the total filtration amount.

[5] = Storage test (1-4) using 10 mM acetate buffer solution (pH 5.1); type: physicochemical; conditions: additional component 5 wt %; 1.0 wt % hyaluronic acid derivative, 10 mM acetate buffer pH 5.1, 1 week at 60° C., HPLC; control solution = 1
Method: as §10, with “manner. […]” for “manner.”
as §5, §6
as §7, with “HPLC. […]” for “HPLC.”
as §9

Cox-2 = target: T1, Cox-2 (Homo sapiens, UniProt P35354); assay: Cox-2 inhibitory activity; type: biochemical; conditions: ratio to diclofenac
T1 sequence (P35354 18-604): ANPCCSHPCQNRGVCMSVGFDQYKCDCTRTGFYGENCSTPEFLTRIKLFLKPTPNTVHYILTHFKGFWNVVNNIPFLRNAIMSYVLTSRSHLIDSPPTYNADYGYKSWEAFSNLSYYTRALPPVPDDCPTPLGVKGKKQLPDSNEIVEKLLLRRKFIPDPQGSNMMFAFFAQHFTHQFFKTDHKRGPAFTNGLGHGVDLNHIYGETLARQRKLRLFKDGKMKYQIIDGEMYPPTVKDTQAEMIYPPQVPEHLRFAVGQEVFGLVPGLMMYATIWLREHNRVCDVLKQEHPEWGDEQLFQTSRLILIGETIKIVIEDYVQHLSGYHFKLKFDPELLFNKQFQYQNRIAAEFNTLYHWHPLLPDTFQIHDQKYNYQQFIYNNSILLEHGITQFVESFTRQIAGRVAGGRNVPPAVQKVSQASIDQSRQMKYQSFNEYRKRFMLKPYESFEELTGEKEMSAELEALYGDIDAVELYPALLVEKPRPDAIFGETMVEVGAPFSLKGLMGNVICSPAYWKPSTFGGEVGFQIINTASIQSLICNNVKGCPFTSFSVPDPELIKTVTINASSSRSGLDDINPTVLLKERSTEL

- Dic amount: the relative value of the amount of diclofenac [1]: 1.02
Molecule: OCC(O)CO [glycerin]

- Solution properties ([2]; additional component 5 wt %): colorless and clear
Molecule: CCCCCCCCO[C@@H]1O[C@H](CO)[C@@H](O)[C@H](O)[C@H]1O [octyl glucoside]

- Dic amount: the relative value of the amount of diclofenac [1]: 1.15
Molecule: OC[C@H]1OC=C[C@@H](O)[C@@H]1O [D-glucal]

- Cox-2 inhibitory activity relative to that of diclofenac (Cox-2): about 1/100
Molecule: O=C1Cc2ccccc2N1c1c(Cl)cccc1Cl [diclofenac lactam]

- Solution properties ([2]; additional component 0.1 wt %): light yellow and clear
Molecule: O=C(/C=C/c1ccc(O)c(O)c1)O[C@@H]1C[C@](O)(C(=O)O)C[C@@H](O)[C@H]1O [chlorogenic acid]

- Solution properties ([2]; additional component 5 wt %): colorless and clear
Molecule: CCCCCCCCCCCCOS(=O)(=O)[O-].[Na+] [SDS, sodium dodecyl sulfate]

Continued, molecule first:

Molecule: COc1ccc(O)c(C(C)(C)C)c1 [butylhydroxyanisole]
- Dic amount: the relative value of the amount of diclofenac [1]: 0.99

Molecule: CC(O)CO (centres unmarked) [propylene glycol]
- Solution properties ([2]; additional component 10 wt %): colorless and slightly turbid

Molecule: polysorbate 20
- Solution properties ([2]; additional component 5 wt %): colorless and clear

Molecule: hydroxypropyl-β-cyclodextrin [HP-β-CD]
- Dic amount: the relative value of the amount of diclofenac ([3]; additional component 3 wt %): 0.62
- Lac amount: the relative value of the amount of diclofenac lactam ([3]; additional component 3 wt %): 0.45
- Dic amount: the relative value of the amount of diclofenac ([3]; additional component 5 wt %): 0.54
- Lac amount: the relative value of the amount of diclofenac lactam ([3]; additional component 5 wt %): 0.34
- Dic amount: the relative value of the amount of diclofenac ([3]; additional component 10 wt %): 0.44
- Lac amount: the relative value of the amount of diclofenac lactam ([3]; additional component 10 wt %): 0.23
- Dic amount: the relative value of the amount of diclofenac ([3]; additional component 15 wt %): 0.36
- Lac amount: the relative value of the amount of diclofenac lactam ([3]; additional component 15 wt %): 0.17
- Maximum treatment amount ([4]; additional component 5 wt %): 8.3 g/cm^2
- Maximum treatment amount ([4]; additional component 10 wt %): 10.4 g/cm^2

Molecule: hydroxyethyl-β-cyclodextrin [HE-β-CD]
- Dic amount: the relative value of the amount of diclofenac [5]: 0.63
- Lac amount: the relative value of the amount of diclofenac lactam [5]: 0.34

Molecule: CCO [ethanol]
- Solution properties ([2]; additional component 26 wt %): colorless and clear
- Maximum treatment amount ([4]; additional component 5 wt %): 10.3 g/cm^2
- Maximum treatment amount ([4]; additional component 10 wt %): 8.2 g/cm^2

Molecule: O=C[C@H](O)[C@H]1OC(=O)[C@@H](O)[C@H]1O [glucuronolactone]
- Solution properties ([2]; additional component 0.1 wt %): slightly yellow and clear

Molecule: octylphenol ethoxylate [Triton X-100]
- Solution properties ([2]; additional component 5 wt %): colorless and clear
